Results taken from PMC11892739, “Site-specific molecular glues for the 14-3-3/Tau pS214 protein–protein interaction via reversible covalent imine tethering” (RSC Medicinal Chemistry, 2025).

Legend:
[1] = biological target: T1, 14-3-3ζ/Rubic peptide (Homo sapiens, UniProt P63104); assay: FA peptide screen, 14-3-3ζ titration to client peptide and compound: Rubic; format: binding; conditions: 250 μM compound, 100 nM peptide; +1 Phe
T1 construct: made in house; host or cells: NiCo21 (DE3) E. coli
Protocol: (§1) Since the hub protein 14-3-3 binds to hundreds of phosphoprotein partners, selectivity of PPI stabilization is a major challenge. The interplay of chemical reactivity, and the topology and functionality of the composite binding pocket shaped by 14-3-3 and Tau potentially provide entries towards selective stabilization. […] Here, 14-3-3ζ was titrated to a constant concentration of client peptide (100 nM) and compound (250 μM) to determine the SF250μM values for the particular 14-3-3 PPI. A variety of 14-3-3 binding proteins was represented in this client panel whereby the size and hydrophobicity of the +1 amino acid were varied. […]
(§2) chromatography (HisTrap high performance cartridges, Cytiva). Typically two 5 mL columns were used for a 2 L culture in which the lysate was loaded on the column, washed with 10 CV wash buffer (50 mM Hepes, pH 8.0, 300 mM NaCl, 25 mM imidazole, 2 mM βME), and eluted with several fractions (2-4 CV) of elution buffer (50 mM Hepes, pH 8.0, 300 mM NaCl, 250 mM imidazole, 2 mM βME). […] Dialyzed protein was concentrated to ∼40 mg/mL, analyzed by Q -Tof LC/MS, and aliquots were flash -frozen for storage at −80 °C. […] Fractions containing the 14 -3-3 protein were pooled and concentrated to ∼60 mg/mL, analyzed Q -Tof LC/MS, and aliquots were flash -frozen for storage at −80°C.
(§3) Fluorescence Anisotropy – compound titration […]

[2] = biological target: T2, 14-3-3ζ/C-Raf peptide (Homo sapiens, UniProt P63104); assay: FA peptide screen, 14-3-3ζ titration to client peptide and compound: C-Raf; format: binding; conditions: 250 μM compound, 100 nM peptide; +1 Thr
T2 construct: made in house; host or cells: NiCo21 (DE3) E. coli
T2 sequence (P63104 whole entry): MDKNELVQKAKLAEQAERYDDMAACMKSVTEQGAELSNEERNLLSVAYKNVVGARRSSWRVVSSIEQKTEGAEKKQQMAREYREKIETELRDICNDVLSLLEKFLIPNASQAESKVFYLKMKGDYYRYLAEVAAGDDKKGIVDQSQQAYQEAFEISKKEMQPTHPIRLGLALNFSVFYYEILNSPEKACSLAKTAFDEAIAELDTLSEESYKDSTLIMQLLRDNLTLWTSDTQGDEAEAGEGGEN
Protocol: as §1, §2, §3

T1 sequence (P63104 whole entry, other chains not shown): as the sequence (P63104 whole entry) above

## CCc1ccc(-c2nccn2-c2ccc(C=O)c(Br)c2)cc1 [Compound 18]
[1]
  stabilization of 14-3-3/Rubic peptide (in words): no significant stabilization
[2]
  stabilization of 14-3-3/C-Raf peptide (in words): did not show significant stabilizing activity
